Patent US8735129B2, “Ginsenoside glycosidase derived from the genus Terrabacter, and use thereof” (Korea Research Institute of Bioscience and Biotechnology, priority 2009, dated 2014)
Where two headings read alike, the source gives them in different places.

What was measured:
recombinant Bgl-gyp17 [1] = assay: Enzymatic hydrolysis of PPD-type ginsenosides (TLC, HPLC, NMR); assay type: biochemical, Terrabacter ginsenosidimutans Gsoil 3082; conditions: 0.2 U enzyme, 50 mM sodium phosphate pH 7.0, 37° C., hydrolysis of glucoses at C-3
Protocol: In order to analyze the specificity and selectivity of the recombinant enzyme for the hydrolysis of glucose at the C-3 and C-20 positions of PPD-type ginsenoside, ginsenoside Rb1, Rb2, Rc, Rd, and Rg3 were used as substrates. Each reaction mixture containing 0.2 U enzyme, 50 mM sodium phosphate buffer 0.1% (w/v) (pH 7.0), and the substrate was incubated at 37° C. Each sample was withdrawn at regular intervals, and an equal volume of water-saturated butanol was added to stop the reaction. The n-butanol fraction was evaporated to dryness, and any residual material was dissolved in CH3OH and then examined by TLC HPLC or NMR analysis.

[2] = tested on: F9 teratocarcinoma stem cells; conditions: cited from earlier work
[3] = tested on: B16 melanoma, MK-1 (stomach cancer cell), ovarian cancer cell (HRA); conditions: MK-1, HRA; cited from earlier work
[4] = cited from earlier work
[5] = tested on: refolded recombinant ginsenoside glycosidase; assay: Reaction of refolded recombinant ginsenoside glycosidase with Rb1, TLC analysis; assay type: biochemical, Terrabacter ginsenosidimutans Gsoil 3082; conditions: 1 mg/ml Rb1 solution in 50 mM sodium phosphate
Protocol: E. coli C41(DE3) containing an overexpressing plasmid was cultured in LB-ampicillin media at 37° C. when the OD value at 600 nm reached 0.6, and treated with 0.5 mM isopropyl-β-D-thiogalactopyranoside for 12 hours to induce protein expression. The bacterial cells were obtained by centrifugation at 4° C. and 5,000×g for 20 minutes. The cell pellet was resuspended in a solution (suspension) consisting of 50 mM sodium phosphate, 5 mM EDTA, and 1% Triton X-100 (pH 7.0) and subjected to ultrasonification. Since the recombinant ginsenoside glycosidase was expressed as an insoluble inclusion body, the sonicated lysate was centrifuged at 4° C. and 20,000×g for 30 minutes to obtain a pellet. The pellet was washed twice with a suspension solution in the absence of Triton X-100. The inclusion body was stirred in a solution containing 50 mM sodium phosphate, 5 mM EDTA, and 8 M urea (pH 8.0) at room temperature overnight for solubilization. After centrifugation (20,000×g, 30 minutes, 4° C.), the solubilized protein was diluted with 40 volumes of a refolding buffer containing 50 mM sodium phosphate, 5% glycerol, 0.05% polyethylene glycol and 0.5 mM sodium chloride at pH 7.0, and refolding of the protein was performed at 4° C. for 24 hours. […] Protein similarity was determined by 10% SDS-PAGE and Coomassie Blue staining. […]

recombinant Bgl-gyp17 [6] = assay: Enzymatic hydrolysis of PPD-type ginsenosides (TLC, HPLC, NMR); assay type: biochemical, Terrabacter ginsenosidimutans Gsoil 3082; conditions: 1 mg/ml ginsenoside Rb1, enzyme concentrations lower than 0.01 mg/ml
tumor cells = conditions: cited from earlier work
[7] = orally administered into the human body

For `CC(C)=CCC[C@](C)(O)[C@H]1CC[C@]2(C)[C@@H]1[C@H](O)C[C@@H]1[C@@]3(C)CC[C@H](O[C@@H]4O[C@H](CO)[C@@H](O)[C@H](O)[C@H]4O)C(C)(C)[C@@H]3CC[C@]12C` [Rh2, ginsenoside Rh2], the “conversion of the ginsenoside by the enzyme (product)” value (“conversion … (product)” below) (recombinant Bgl-gyp17 [1]) is listed as “converted Rh2 into PPD and PPD”, the induction of differentiation [2] is listed as “strongly induce the differentiation” and the “inhibitory effects on proliferation” value [3] is listed as “strong inhibitory effects”.

For `CC(C)=CCC[C@](C)(O[C@@H]1O[C@H](CO)[C@@H](O)[C@H](O)[C@H]1O)[C@H]1CC[C@]2(C)[C@@H]1[C@H](O)C[C@@H]1[C@@]3(C)CC[C@H](O)C(C)(C)[C@@H]3[C@@H](O[C@@H]3O[C@H](CO)[C@@H](O)[C@H](O)[C@H]3O[C@@H]3O[C@@H](C)[C@H](O)[C@@H](O)[C@H]3O)C[C@]12C` [Re], the in vivo absorption [4, 7] is listed as “very low in vivo absorption”.

In the case of `CC(C)=CCC[C@](C)(O)[C@H]1CC[C@]2(C)[C@@H]1[C@H](O)C[C@@H]1[C@@]3(C)CC[C@H](O)C(C)(C)[C@@H]3[C@@H](O[C@@H]3O[C@H](CO)[C@@H](O)[C@H](O)[C@H]3O)C[C@]12C` [Rh1], the induction of differentiation [2] is listed as “strongly induce the differentiation” and the “inhibitory effects on proliferation” value [3] is listed as “strong inhibitory effects”.

For `CC(C)=CCC[C@](C)(O[C@@H]1O[C@H](CO[C@@H]2O[C@H](CO)[C@@H](O)[C@H](O)[C@H]2O)[C@@H](O)[C@H](O)[C@H]1O)[C@H]1CC[C@]2(C)[C@@H]1[C@H](O)C[C@@H]1[C@@]3(C)CC[C@H](O[C@@H]4O[C@H](CO)[C@@H](O)[C@H](O)[C@H]4O[C@@H]4O[C@H](CO)[C@@H](O)[C@H](O)[C@H]4O)C(C)(C)[C@@H]3CC[C@]12C` [ginsenoside Rb1], the “conversion … (product)” value (recombinant Bgl-gyp17 [1]) was “C—K”, the “conversion of the ginsenoside (TLC)” value [5] was “converted ginsenoside Rb1 into gyp XVII” and the “hydrolysis of the ginsenoside” value (recombinant Bgl-gyp17 [6]) was “completely hydrolyzed to produce gyp XVII”. The in vivo absorption ([4]; in vivo, po) was “very low in vivo absorption”.

For `CC(C)=CCC[C@](C)(O[C@@H]1O[C@H](CO[C@@H]2OC[C@H](O)[C@H](O)[C@H]2O)[C@@H](O)[C@H](O)[C@H]1O)[C@H]1CC[C@]2(C)[C@@H]1[C@H](O)C[C@@H]1[C@@]3(C)CC[C@H](O[C@@H]4O[C@H](CO)[C@@H](O)[C@H](O)[C@H]4O[C@@H]4O[C@H](CO)[C@@H](O)[C@H](O)[C@H]4O)C(C)(C)[C@@H]3CC[C@]12C` [ginsenoside Rb2], the “conversion … (product)” value (recombinant Bgl-gyp17 [1]) is listed as “C—Y (compound Y)”, the “conversion … (product)” value (recombinant Bgl-gyp17 [1]; listed as Rb2) is listed as “C—Y” and the in vivo absorption ([4]; in vivo, po) is listed as “very low in vivo absorption”.

In the case of `CC(C)=CCC[C@](C)(O[C@@H]1O[C@H](CO)[C@@H](O)[C@H](O)[C@H]1O)[C@H]1CC[C@]2(C)[C@@H]1[C@H](O)C[C@@H]1[C@@]3(C)CC[C@H](O)C(C)(C)[C@@H]3[C@@H](O[C@@H]3O[C@H](CO)[C@@H](O)[C@H](O)[C@H]3O)C[C@]12C` [Rg1], the in vivo absorption [4, 7] is given as “very low in vivo absorption”.

In the case of `CC(C)=CCC[C@](C)(O[C@@H]1O[C@H](CO[C@@H]2O[C@@H](CO)[C@H](O)[C@H]2O)[C@@H](O)[C@H](O)[C@H]1O)[C@H]1CC[C@]2(C)[C@@H]1[C@H](O)C[C@@H]1[C@@]3(C)CC[C@H](O[C@@H]4O[C@H](CO)[C@@H](O)[C@H](O)[C@H]4O[C@@H]4O[C@H](CO)[C@@H](O)[C@H](O)[C@H]4O)C(C)(C)[C@@H]3CC[C@]12C` [Rc, ginsenoside Rc], the “conversion … (product)” value (recombinant Bgl-gyp17 [1]) is given as “C-Mc (compound Mc) and C-Mc” and the in vivo absorption [4, 7] is given as “very low in vivo absorption”.

In the case of `CC(C)=CCC[C@](C)(O[C@@H]1O[C@H](CO)[C@@H](O)[C@H](O)[C@H]1O)[C@H]1CC[C@]2(C)[C@@H]1[C@H](O)C[C@@H]1[C@@]3(C)CC[C@H](O[C@@H]4O[C@H](CO)[C@@H](O)[C@H](O)[C@H]4O)C(C)(C)[C@@H]3CC[C@]12C` [F2, ginsenoside F2], the “conversion … (product)” value (recombinant Bgl-gyp17 [1]) is listed as “further converted into C—K (compound K) and C—K”, the “effect on proliferation of tumor cells” value (tumor cells) is listed as “suppressing the proliferation of tumor cells” and the “effect on multi-drug resistance” value (tumor cells; tumor cells and bacteria) is listed as “reversing multi-drug resistance”.
